Measured values reported in ChEMBL document CHEMBL1155962, “Dihydropyrazolopyrimidines containing benzimidazoles as K(V)1.5 potassium channel antagonists” (Bioorg Med Chem Lett, 2009).
pIC50: −log10 of the molar value. The source made the active and inactive calls. The calls are words filed in the database; no cut-off is given here.

How the values were obtained:
[1] = target: T1, Potassium voltage-gated channel subfamily A member 5 (Homo sapiens, UniProt P22460); test: Inhibition of human Kv1.5 channel expressed in mouse L929 cells; format: cell-based
T1 sequence (P22460 whole entry): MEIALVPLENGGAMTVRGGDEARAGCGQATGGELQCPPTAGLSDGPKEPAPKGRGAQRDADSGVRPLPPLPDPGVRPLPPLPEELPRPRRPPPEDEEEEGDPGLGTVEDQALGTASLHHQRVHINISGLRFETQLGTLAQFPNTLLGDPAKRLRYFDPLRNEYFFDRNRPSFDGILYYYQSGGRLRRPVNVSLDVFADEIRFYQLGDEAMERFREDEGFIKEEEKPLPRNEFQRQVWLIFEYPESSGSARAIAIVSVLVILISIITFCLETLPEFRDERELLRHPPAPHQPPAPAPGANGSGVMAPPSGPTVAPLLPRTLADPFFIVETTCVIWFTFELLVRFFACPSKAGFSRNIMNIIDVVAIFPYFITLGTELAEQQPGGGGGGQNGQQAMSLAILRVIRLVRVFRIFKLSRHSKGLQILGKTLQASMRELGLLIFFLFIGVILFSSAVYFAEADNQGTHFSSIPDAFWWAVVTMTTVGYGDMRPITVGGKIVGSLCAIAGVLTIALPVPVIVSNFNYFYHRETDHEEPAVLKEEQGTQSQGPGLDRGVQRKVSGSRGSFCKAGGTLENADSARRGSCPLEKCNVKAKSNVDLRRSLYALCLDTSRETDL

hERG (KCNH2) = hERG (KCNH2) (Homo sapiens, UniProt Q12809); test: Inhibition of human ERG at 10 uM
Chain of hERG (KCNH2) (Q12809 whole entry): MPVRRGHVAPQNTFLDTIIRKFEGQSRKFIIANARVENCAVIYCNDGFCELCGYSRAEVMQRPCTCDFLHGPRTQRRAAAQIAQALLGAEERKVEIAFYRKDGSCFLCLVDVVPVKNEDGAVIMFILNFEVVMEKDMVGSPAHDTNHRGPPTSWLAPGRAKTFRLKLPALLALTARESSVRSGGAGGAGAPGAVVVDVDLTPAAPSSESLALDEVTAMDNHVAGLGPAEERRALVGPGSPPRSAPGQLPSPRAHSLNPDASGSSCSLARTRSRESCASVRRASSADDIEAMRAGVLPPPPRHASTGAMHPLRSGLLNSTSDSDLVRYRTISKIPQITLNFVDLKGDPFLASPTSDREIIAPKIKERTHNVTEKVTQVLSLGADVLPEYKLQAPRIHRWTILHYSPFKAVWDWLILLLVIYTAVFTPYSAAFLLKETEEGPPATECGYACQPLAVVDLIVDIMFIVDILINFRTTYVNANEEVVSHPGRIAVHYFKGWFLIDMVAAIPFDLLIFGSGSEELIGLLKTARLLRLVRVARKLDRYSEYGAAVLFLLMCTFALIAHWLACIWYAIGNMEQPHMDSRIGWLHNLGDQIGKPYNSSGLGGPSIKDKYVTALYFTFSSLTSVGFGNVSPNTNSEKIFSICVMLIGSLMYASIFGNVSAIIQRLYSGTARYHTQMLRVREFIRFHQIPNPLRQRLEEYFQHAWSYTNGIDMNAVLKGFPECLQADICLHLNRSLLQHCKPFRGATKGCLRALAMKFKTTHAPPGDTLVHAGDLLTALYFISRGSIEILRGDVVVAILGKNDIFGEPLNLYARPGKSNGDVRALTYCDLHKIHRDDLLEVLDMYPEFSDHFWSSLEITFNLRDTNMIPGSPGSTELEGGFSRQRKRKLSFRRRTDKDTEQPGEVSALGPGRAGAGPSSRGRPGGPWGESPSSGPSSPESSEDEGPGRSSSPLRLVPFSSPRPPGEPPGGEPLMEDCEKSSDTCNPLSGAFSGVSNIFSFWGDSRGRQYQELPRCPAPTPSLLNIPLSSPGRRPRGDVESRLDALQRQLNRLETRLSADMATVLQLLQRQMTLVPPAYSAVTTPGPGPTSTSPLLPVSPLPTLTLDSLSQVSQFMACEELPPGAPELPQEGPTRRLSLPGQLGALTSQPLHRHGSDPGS

[2] = Inhibition of sodium channel at 10 uM
[3] = Inhibition of calcium channel at 10 uM
[4] = Oral bioavailability in rat at 20 umol/kg; format: ADME, organism-based; conditions: in vivo
[5] = Terminal half life in rat at 10 umol/kg, intra-arterial for 10 mins; format: ADME, organism-based; conditions: in vivo, read-out: beta t1/2 (converted)
[6] = Plasma clearance in rat at 10 umol/kg, intra-arterial for 10 mins; format: ADME, organism-based
[7] = Volume of distribution at steady state in rat at 10 umol/kg, intra-arterial for 10 mins; format: ADME, organism-based; conditions: in vivo, read-out: Vdss
Homo sapiens = species: Homo sapiens; test: Selectivity for human Kv1.5 channel over human ERG
[8] = Selectivity for human Kv1.5 channel over sodium channel
[9] = Selectivity for human Kv1.5 channel over calcium channel
Oryctolagus cuniculus [10] = test: Prolongation of effective refractory period in rabbit atrium at 3 mg/kg; format: functional, Cardiac atrium
Oryctolagus cuniculus [11] = test: Prolongation of effective refractory period in rabbit ventricle at 0.3 to 10 mg/kg; format: functional, organism-based
[12] = target: T1, Potassium voltage-gated channel subfamily A member 5; test: Inhibition of human Kv1.5 channel expressed in mouse L929 cells at >1 uM; format: cell-based

## CC1=C(c2nc3cc(Cl)ccc3n2C(C)C)C(c2ccc(Cl)c(Cl)c2)n2nccc2N1 (stereo not drawn)
[1]
  pIC50: 7.03

## CC1=C(c2nc3c(F)cccc3n2C)C(c2ccc(Cl)c(Cl)c2)n2nccc2N1 (stereo not drawn)
[1]
  pIC50: 7.19

## COC(=O)c1ccc2c(c1)nc(C1=C(C)Nc3ccnn3C1c1ccc(Cl)c(Cl)c1)n2C (stereo not drawn)
[1]
  pIC50: 6.70

## CC1=C(c2nc3cc(C)ccc3n2C)C(c2ccc(Cl)c(Cl)c2)n2nccc2N1 (stereo not drawn)
[1]
  pIC50: 6.70

## CC1=C(c2nc3ccccc3s2)C(c2ccc(Cl)c(Cl)c2)n2nccc2N1 (stereo not drawn)
[1]
  pIC50: 6.13

## COCC1=C(c2nc3cc(F)ccc3n2C)C(c2ccc(Cl)c(Cl)c2)n2nccc2N1 (stereo not drawn)
[1]
  pIC50: 7.52
hERG (KCNH2)
  inhibition at 10 µM: 47%
[2]
  inhibition: 27%
[3]
  inhibition: 13%
[4]
  bioavailability: 37%
[5]
  half-life: 1.5 h
[6]
  clearance: 42 mL/min/kg
[7]
  Vd: 2.1 L/kg
Homo sapiens
  Selectivity ratio: > 200
[8]
  Selectivity ratio: > 200
[9]
  Selectivity ratio: > 200
Oryctolagus cuniculus [10]
  Activity: >20%
Oryctolagus cuniculus [11]
  Activity: inactive

## CC1=C(c2nc3cc(F)ccc3n2C)C(c2ccc(Cl)c(Cl)c2)n2nccc2N1 (stereo not drawn)
[1]
  pIC50: 7.82
hERG (KCNH2)
  inhibition at 10 µM: 83%
[2]
  inhibition: 37%
[4]
  bioavailability: 51%
[5]
  half-life: 0.57 h
[6]
  clearance: 35 mL/min/kg
[7]
  Vd: 1.6 L/kg
Homo sapiens
  Selectivity ratio: > 200
[8]
  Selectivity ratio: > 200
[9]
  Selectivity ratio: > 200

## CC1=C(c2nc3ccc(Cl)cc3n2C)C(c2ccc(Cl)c(Cl)c2)n2nccc2N1 (stereo not drawn)
[1]
  pIC50: 6.18

## CC(=O)Nc1ccc2c(c1)nc(C1=C(C)Nc3ccnn3C1c1ccc(Cl)c(Cl)c1)n2C (stereo not drawn)
[1]
  pIC50: < 6.00
[12]
  inhibition: 8%

## CC1=C(c2nc3ccc(C)cc3n2C)C(c2ccc(Cl)c(Cl)c2)n2nccc2N1 (stereo not drawn)
[1]
  pIC50: 6.01

## CC1=C(c2nc3cccc(C)c3[nH]2)C(c2ccc(Cl)c(Cl)c2)n2nccc2N1 (stereo not drawn)
[1]
  pIC50: 6.82

## CC1=C(c2nc3cc(Cl)ccc3n2C)C(c2ccc(Cl)c(Cl)c2)n2nccc2N1 (stereo not drawn)
[1]
  pIC50: 7.17

## CC1=C(c2nc3cccc(Cl)c3n2C)C(c2ccc(Cl)c(Cl)c2)n2nccc2N1 (stereo not drawn)
[1]
  pIC50: 7.15

## CC1=C(c2nnc(-c3ccccc3)o2)C(c2ccc(Cl)c(Cl)c2)n2nccc2N1 (stereo not drawn)
[1]
  pIC50: < 6.00
[12]
  inhibition: 18%

## CC1=C(c2nc3cccc(F)c3n2C)C(c2ccc(Cl)c(Cl)c2)n2nccc2N1 (stereo not drawn)
[1]
  pIC50: 6.82

## CC1=C(c2nc3cc(S(C)(=O)=O)ccc3n2C)C(c2ccc(Cl)c(Cl)c2)n2nccc2N1 (stereo not drawn)
[1]
  pIC50: < 6.00
[12]
  inhibition: 29%

## CC1=C(c2ncc(-c3ccccc3)o2)C(c2ccc(Cl)c(Cl)c2)n2nccc2N1 (stereo not drawn)
[1]
  pIC50: < 6.00
[12]
  inhibition: 25%

## CC1=C(c2nc3ccccc3[nH]2)C(c2ccc(Cl)c(Cl)c2)n2nccc2N1 (stereo not drawn)
[1]
  pIC50: 6.29

## CC1=C(c2nc3cc(C#N)ccc3n2C)C(c2ccc(Cl)c(Cl)c2)n2nccc2N1 (stereo not drawn)
[1]
  pIC50: 6.66

## CC1=C(c2nc3cccc(C)c3n2C)C(c2ccc(Cl)c(Cl)c2)n2nccc2N1 (stereo not drawn)
[1]
  pIC50: 6.96

## CC1=C(c2nc3ccccc3n2C)C(c2ccc(Cl)c(Cl)c2)n2nccc2N1 (stereo not drawn)
[1]
  pIC50: 7.12

## CCn1c(C2=C(C)Nc3ccnn3C2c2ccc(Cl)c(Cl)c2)nc2cc(Cl)ccc21 (stereo not drawn)
[1]
  pIC50: 7.24

## CC1=C(c2nc3cc(S(=O)(=O)Nc4ccccc4)ccc3n2C)C(c2ccc(Cl)c(Cl)c2)n2nccc2N1 (stereo not drawn)
[1]
  pIC50: < 6.00
[12]
  inhibition: 30%

## CCCCc1nnc(C2=C(C)Nc3ccnn3C2c2ccc(Cl)c(Cl)c2)o1 (stereo not drawn)
[1]
  pIC50: < 6.00
[12]
  inhibition: 29%

## CCCn1c(C2=C(C)Nc3ccnn3C2c2ccc(Cl)c(Cl)c2)nc2cc(F)ccc21 (stereo not drawn)
[1]
  pIC50: 7.32

## CC1=C(c2nc3cc(C(F)(F)F)ccc3n2C)C(c2ccc(Cl)c(Cl)c2)n2nccc2N1 (stereo not drawn)
[1]
  pIC50: 6.27
